What all share (assay): NCI tumour cell line growth inhibition, 48 h
Assay [1] concerns HOP-18 NSCLC.
In assay [2] the test system is XF 498 CNS.
Assay [3] has as its system M19-MEL melanoma.
Assay [4] concerns RXF-631 renal.
Assay [5] relates to DLD-1 colon.
Assay [6] relates to LXFL 529 NSCLC.
In assay [7] the test system is KM20L2 colon.
Assay [8] deals with DMS 273 small cell lung.
Assay [9] relates to MDA-N.
Assay [10] relates to SN12K1 renal.
Assay [11] relates to P388/ADR leukemia.

Where “and” joins values, the source holds several entries; their conditions need not be identical. Identical values can stand only once.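 In this assay, cells in 96-well plates receive the compound at five concentrations for 48 hours. Endpoints are linearly interpolated between the surrounding concentrations. At the GI50, growth is halved. At the TGI there is no net growth.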

Results on two molecules are retold here after PubChem BioAssay (NCI).

Turning to `Cc1cc(-c2c(F)cc3c4nn([C@H]5CC[C@@H](N(C)C)CC5)c(=O)c-4cn(C4CC4)c3c2F)cc(C)n1`, the TGI is 0.919 µM in assay [1]; 0.757 µM and 2.29 µM in assay [2]; 0.507 µM and 1.59 µM in [3]; 0.256 µM in [4]; 2.85 µM in assay [5]; 0.267 µM and 1.31 µM in assay [6]. The TGI in assay [7] was 0.462 µM; in [8] it was 0.0372 µM and 0.172 µM; in assay [9] it was 6.75 µM. Moreover, the GI50 in assay [2] was 0.394 µM; in [3], 0.247 µM; in assay [5], 0.156 µM; in assay [6], 0.227 µM; in assay [8] it was 0.03 µM.
As for `CS(=O)(=O)OCCCNCCCOS(C)(=O)=O`, the TGI in assay [1] stood at 2560 µM; in assay [2] it was 2600 µM; in [3] it was 5560 µM; in assay [5], 9100 µM; in assay [7] it was 5860 µM; in assay [10] it was 2320 µM. For the same molecule, the TGI worked out at 1150 µM in assay [8] and 8330 µM in assay [11].
